Data set [1] has as its system Cyp2e1. Nature of the data set: Real-time PCR mRNA level after 7 days gavage: Cyp2e1. The class given is in vivo, mice. More on the design: key to CYP2E1 mNA expression: ↑: up-regulation; ↓: down-regulation; –: no change. The note with it: for mRNA levels of Cyp2e1: mice, 2, 5, 10 mg/kg p.o. 7 days. The method, then: Mice were randomly divided into four groups, with eight animals in each group. The mice received oral pretreatment with N-hydap for 7 days at doses of 2, 5, and 10 mg/kg/day, which were considered as the low dose, medium dose, and high dose, respectively. Correspondingly, the control group received PBS. On the 8th day, the liver and kidneys were removed, and organs from eight mice per group were combined to prepare MLMs and MKMs using the detailed procedures above. Subsequently, we determined the activity of CYP and UGT enzymes by specific substrate metabolized with MLMs (0.5 mg/mL) and MKMs (0.2 mg/mL) in vitro. Specifically, the following selective substrates were used for the respective enzymes: PH (1 μM) for CYP1A2, DIC (1 μM) for CYP2C9, MP (90 μM) for CYP2C19, DM (1 μM) for CYP2D6, CZX (10 μM) for CYP2E1, Tes (1 μM) for CYP3A4, SN38 (1 μM) for UGT1A1, CACD (100 μM) for UGT1A3, Sero (20 μM) for UGT1A6, and Prop (1 μM) for UGT1A9. All substrates were dissolved in methanol or DMSO. The incubation procedure was carried out as mentioned above, and the reaction was terminated with VER (20 ng/mL) in ESI+ mode and CLP (200 ng/mL) in ESI− mode. In the ex vivo experiments, the activity of enzymes was measured by quantifying the production of various metabolites (nM/mg protein/min). The metabolites and their corresponding enzymes are as follows: APAP from PH, 4-OH-DIC from DIC, 4-OH-MP from MP, DXO from DM, 6-OH-CZX from CZX, 6-OH-Tes from Tes, SN38-G from SN38, CACD-G from CACD, Sero-G from Sero, Prop-G from Prop. The measurements were performed using multiple reaction monitoring (MRM) transitions, which are specific mass spectrometry transitions used for quantification. The optimized parameters for each metabolite, such as declustering potential and collision energy, were described in Supplementary Table 1. All experiments were conducted in triplicate, to ensure accuracy and reproducibility.
Total RNA from liver and kidney samples taken after 7 days of N-hydap gavage was extracted using the Animal Total RNA Isolation Kit (Foregene, Chengdu, Sichuan, China) following the manufacturer’s instructions. The concentrations of total RNA were determined by a nucleic acid concentration tester at 260/280 nm. A HiScript III RT SuperMix for qPCR (+ gDNA wiper) (Vazyme, Nanjing, Jiangsu, China) was used to measure the concentration of the synthesized cDNA. ChamQ SYBR qPCR Master Mix (Vazyme, Nanjing, Jiangsu, China) and detection were performed using a Light Cycler 480 II (ROCHE, Basel, Switzerland). Real-time PCR was used to analyze the relative mRNA levels of Cyp1a2, Cyp2b10, Cyp2c39, Cyp2d22, Cyp2e1, Cyp3a11, Ugt1a1, Ugt1a6a and Ugt1a9 (human homologs: CYP1A2, CYP2B6, CYP2C19, CYP2D6, CYP2E1, CYP3A4, UGT1A1, UGT1A6, and UGT1A9) in the liver, kidneys, and intestines. […]
For orientation: Real-time PCR tracks product formation cycle by cycle.

The subject of data set [2] is MKMs. Nature of the data set: Kinetics of N-hydap glucuronidation in MKMs. The class given is in vitro ADME, mouse. The note with it: MKM. The method, then:
In this study, the rats were executed by drawing blood from the abdominal aorta and mice were sacrificed with cervical dislocation before the liver and kidneys were excised. The liver and kidneys were removed, and washed with chilled cleansing solution (contains 8 mM KH2PO4, 5.6 mM EDTA·K2·2H2O, 1 mM DTT and 229.6 μM PMSF), homogenized in a tissue homogenate buffer with a pH of 7.4, (consisting of […], 8 mM K2HPO4, 250 mM sucrose, 1 mM EDTA·K2·2H2O and 229.6 μM PMSF). Subsequently, the homogenate was centrifuged at 10,400 rpm at 4 °C for 15 min, and the supernatant was then centrifuged at 35,000 rpm at 4 °C for 60 min. A 250 mM sucrose buffer was added to the pellet to reconstitute and the resuspension was stored at − 80 °C until use. Microsome protein concentrations were measured by Omni-Easy™ Instant BCA Protein Assay Kit.
Various microsomes including HLMs, HKMs, HIMs, RLMs, RKMs, MLMs and MKMs were involved in CYP and UGT reactions of N-hydap. […]
The substrate concentrations used for HLMs were 0.05, 0.5, 2, 2.5, 5, 10, 25, 50, and 100 μM. […] The rates of N-hydap-G by enzymes were expressed as nmol/mg/min, representing the amount of metabolites formed per minute per milligram of protein. Kinetic parameters were determined by analyzing the Eadie–Hofstee plots. […]

On to `CC1CCC2C(C=CC(C)C2C(=O)c2c(O)c(C3(O)CCC(O)C4OC43)cn(O)c2=O)C1` (centres unmarked) [N-hydap, N-Hydroxyapiosporamide], for which the “CYP2E1 mNA expression” value in data set [1] (Kidney) was “↑”; in data set [1] (Liver) it was “–”. Moreover, the “mRNA levels of Cyp2e1” value in data set [1] (intestines) is recorded as “slight reduction”; in data set [1] (kidney), “modest increase”. In addition, the Km (commonly the concentration of substrate that gives half-maximal velocity) in data set [2] was determined as 405 µM.
